This note sets out measurements from patent US7879547B2, “Method of detecting the presence of asthma or allergies in a patient” (Children's Hospital Medical Center, priority 2002, dated 2011).

SMILES strings stand for the structures.

Experiment [1] relates to lung arginase. In words: Lung arginase activity after intratracheal NOHA in IL-4 lung transgenic mice. The experiment is classed as in vivo. The conditions noted are these: IL-4 transgenic mice, intratracheal NOHA 10 and 100 mcg, measured 4 hrs later, FIG. 11B. On the procedure:
(§1) FIGS. 11A and 11B are line graphs showing the results of treating lung lysates with N(omega)-hydroxy-L-arginine (NOHA). FIG. 11A illustrates in vitro treatment of lung lysates from […] with NOHA. FIG. 11B illustrates in vitro treatment of transgenic mice that overexpress interleukin 4 with NOHA.
(§2) Arginase activity was measured using the blood urea nitrogen reagent (Sigma Chemical Company, St. Louis, Mo.) according to established techniques as exemplified in Wei, L. H., et al., Proc Natl Acad Sci USA 98, 9260-4. (2001); Li, H. et al. Am J Physiol Regul Integr Comp Physiol 282, R64-R69. (2002); Wei, L. H. et al., Am J Physiol Cell Physiol 279, C248-56. (2000). To measure levels of putrescine following acid extraction, ion-pair reverse phase high performance liquid chromatography was performed.
(§3) IL-4 lung transgenic mice, which have markedly elevated level of lung arginase mRNA and activity, were used to examine the effect of NOHA in vitro and in vivo (FIG. 11). In FIG. 11A, lung lysates from IL-4 lung transgenic mice were incubated with NOHA and the arginase activity at different doses of NOHA (x axis) and arginine is shown. In FIG. 11B, IL-4 transgenic mice were treated with intratracheal NOHA (two doses: 10 and 100 mcg) and the arginase activity in the lungs was measured 4 hrs later.

In experiment [2] the test system is IL4/IL5 lung transgenic mice. Kind of experiment: Airway hyperresponsiveness to methacholine (Penh, barometric plethysmography) after intratracheal NOHA. The format is in vivo. As to conditions: intratracheal NOHA 100 mcg, Penh recorded 4 hrs later, Example 20, FIG. 12. On the procedure:
FIG. 12 is a line graph showing the results of airway hyperreactivity measurements (recorded as Penh) in asthmatic mice (IL4/IL5 bitransgenic lung mice) treated with intratracheal NOHA. Airway reactivity to methacholine was assessed in conscious, unrestrained mice by barometric plethysmography, using apparatus and software supplied by Buxco (Troy, N.Y.). This system yields a dimensionless parameter known as enhanced pause (Penh), reflecting changes in wave-form of the pressure signal from the plethysmography chamber combined with a timing comparison of early and late expiration, which can be used to empirically monitor airway function. […]

For another experiment, the system named is asthma. Kind of experiment: Treatment of individual suffering from asthma with anti-arginase compound (inhalation). The experiment is classed as in vivo. As to conditions: inhalation of therapeutically effective amount. The text has this:
An individual suffering from asthma is identified. The individual is provided with a therapeutically effective amount of N(omega)-hydroxy-L-arginine to reduce the indications of asthma.

The subject of experiment [3] is lung arginase. In words: Arginase activity in lung lysates incubated with NOHA in vitro (blood urea nitrogen reagent). The experiment is classed as biochemical, mice. On the procedure:
as §1, §2, §3

Take `N=C(NO)NCCC[C@H](N)C(=O)O` [NOHA, N(omega)-hydroxy-L-arginine]: the “arginase activity in the lungs” value with lung arginase [1] is “effective to reduce arginase activity”. Moreover, the “development of allergen-induced airway hyperresponsiveness (Penh)” value in experiment [2] is “blocks the development of allergen-induced airway hyperesponsiveness”. The asthma symptoms entry in the experiment on asthma is recorded as “asthma symptoms are reduced”. For the same molecule, in the experiment on lung arginase [3] (lung lysates from IL-4 lung transgenic mice incubated with different doses of NOHA and arginine, FIG. 11A), the “arginase activity in lung lysates” value is recorded as “effective to reduce arginase activity in lung lysates”. For the same molecule, the “arginase activity in the asthmatic lung” value in the experiment on lung arginase [3] (summary statement referring to Example 15) is reported as “blocks arginase activity in the asthmatic lung”.
